US20220265817A1, “THERAPEUTIC COMPOSITIONS AND METHODS FOR TREATING HEPATITIS B” (priority 2017, published 2022)
pEC50: −log10 of the molar value. Values joined by “and” are separate entries in the source; they are usually repeats but may differ in a detail not shown here. Identical values can stand only once. Like-named read-outs stand apart in the source and are kept apart here.

Experiments:
Assay in all cases: microbe, parasite or virus in culture
Format in all cases: cell-based
[1] = system: D type HBV in primary human hepatocytes; conditions: for pEC50: PHH
Method: (§1) The mouse liver perfusion was applied to isolate PHHs. The isolated hepatocytes were further purified by Percoll. The cells were resuspended with culture media and seeded into the 96-well plates (6×10^4 cell/well) or 48-well plates (1.2×10^5 cell/well). The PHHs were infected with a D type HBV one day post seeding (day 1).
(§2) On day 2, the test compounds were diluted and added into the cell culture plates. The culture media containing the compounds were refreshed every other day. The cell culture supernatants were collected on day 8 for the HBV DNA and antigen determinations.
(§3) The compounds were tested at 7 concentrations, 3-fold dilution, in triplicate.
(§4) Two compounds were tested at 5×5 matrix, in triplicate plates.
DNA in the culture supernatants harvested on days 8 were isolated with QIAamp 96 DNA Blood Kit (Qiagen-51161). For each sample, 100 μl of the culture supernatants was used to extract DNA. The DNA was eluted with 100 μl, 150 μl or 180 μl of AE. HBV DNA in the culture supernatants was quantified by qPCR. The combination effect was analyzed by the MacSynergy software. The primers are described below.

[2] = system: D type HBV in primary human hepatocytes (HBsAg)
Method: as §1, §2, §3, §4
(§5) HBsAg/HBeAg in the culture supernatants harvested on days 8 were measured by the HBsAg/HBeAg ELISA kit (Autobio) according to the manual. The samples were diluted with PBS to get the signal in the range of the standard curve. The inhibition rates were calculated with the formula below. The combination effect was analyzed by the MacSynergy software.
% Inh. HBsAg=[1-HBsAg quantity of sample/HBV quantity of DMSO control]×100.

[3] = system: D type HBV in primary human hepatocytes (HBeAg)
Method: as §1, §2, §3, §4, §5
% Inh. HBeAg=[1-HBeAg quantity of sample/HBV quantity of DMSO control]×100.

[4] = Hepatitis B virus, Hepatocyte, 432 h, read-out: Inhibitor B EC50
[5] = Hepatitis B virus, Hepatocyte, 456 h, read-out: Inhibitor A EC50

For `COCCCOc1cc2c(cc1OC)-c1cc(=O)c(C(=O)O)cn1C(C(C)C)C2` (centres unmarked) [Compound 25], the “AVERAGE % INHIBITION HBV DNA” value ([1]; COMPOUND 25 0.37 nM alone) was −51.8% and −46.48%, the “AVERAGE % INHIBITION HBV DNA” value ([1]; COMPOUND 25 3.33 nM alone) was 16.41% and the “AVERAGE % INHIBITION HBV DNA” value ([1]; COMPOUND 25 10.00 nM alone) was 37.39%. It also gave a pEC50 ([1]; Hepatitis B virus, Hepatocyte, 432 h, HBV DNA endpoint, determined in an earlier separate experiment (Table 18d), read-out: Inhibitor B EC50) of 9.18, a pEC50 ([1]; Hepatitis B virus, Hepatocyte, 456 h, HBV DNA endpoint, determined in an earlier separate experiment (Table 19d), read-out: Inhibitor A EC50) of 9.18 and an inhibition at 0.00333 µM ([1]; Hepatitis B virus, Hepatocyte, read-out: AVERAGE % […] DNA, COMPOUND 25 3.33 nM alone, read-out: AVERAGE % INHIBITION HBV DNA) of 15.2%. The inhibition at 0.01 µM ([1]; Hepatitis B virus, Hepatocyte, read-out: AVERAGE % […] DNA, COMPOUND 25 10.00 nM alone, read-out: AVERAGE % INHIBITION HBV DNA) was 28%, the inhibition at 0.12 µM ([1]; Hepatitis B virus, Hepatocyte, read-out: AVERAGE % […] DNA, compound 25 0.12 μM alone) was -14.4% and the inhibition at 0.37 µM ([1]; Hepatitis B virus, Hepatocyte, read-out: AVERAGE % […] DNA, compound 25 0.37 μM alone) was -9.87%. For the same molecule, the inhibition at 3.33 µM ([1]; Hepatitis B virus, Hepatocyte, read-out: AVERAGE % […] DNA, compound 25 3.33 μM alone) was 32.6%, the inhibition at 10 µM ([1]; Hepatitis B virus, Hepatocyte, read-out: AVERAGE % […] DNA, compound 25 10.00 μM alone) was 53.8% and the pEC50 ([1]; Hepatitis B virus, Hepatocyte, determined in an earlier separate experiment, read-out: Inhibitor A EC50 HBV DNA) was 9.18. The “AVERAGE % INHIBITION (HBsAg)” value ([2]; COMPOUND 25 0.12 nM alone) was 3.68% and 9.32%, the “AVERAGE % INHIBITION (HBsAg)” value ([2]; COMPOUND 25 3.33 nM alone) was 20.81% and the “AVERAGE % INHIBITION (HBsAg)” value ([2]; COMPOUND 25 10.00 nM alone) was 42.95%. It also gave a pEC50 [2, 4] of 8.35, a pEC50 [2, 5] of 8.35 and an inhibition at 0.12 µM ([2]; Hepatitis B virus, Hepatocyte, COMPOUND 25 0.12 μM alone) of -5.64%. For the same molecule, the inhibition at 0.37 µM ([2]; Hepatitis B virus, Hepatocyte, COMPOUND 25 0.37 μM alone) was -7.52%, the inhibition at 0.00333 µM ([2]; Hepatitis B virus, Hepatocyte, read-out: AVERAGE % INHIBITION HBsAg, COMPOUND 25 3.33 nM alone) was 13.1% and the inhibition at 0.01 µM ([2]; Hepatitis B virus, Hepatocyte, read-out: AVERAGE % INHIBITION HBsAg, COMPOUND 25 10.00 nM alone) was 33%. The inhibition at 3.33 µM ([2]; Hepatitis B virus, Hepatocyte, read-out: AVERAGE % INHIBITION HBsAg, COMPOUND 25 3.33 μM alone) was 8.81%, the inhibition at 10 µM ([2]; Hepatitis B virus, Hepatocyte, read-out: AVERAGE % INHIBITION HBsAg, COMPOUND 25 10.00 μM alone) was 42.5% and the pEC50 ([2]; Hepatitis B virus, Hepatocyte, read-out: Inhibitor A EC50 HBsAg) was 8.35. The “AVERAGE % INHIBITION HBeAg” value ([3]; COMPOUND 25 0.12 nM alone) was 4.8%, the “AVERAGE % INHIBITION HBeAg” value ([3]; COMPOUND 25 0.37 nM alone) was −0.51% and 2.9% and the “AVERAGE % INHIBITION HBeAg” value ([3]; COMPOUND 25 3.33 nM alone) was 13.94%. For the same molecule, the “AVERAGE % INHIBITION HBeAg” value ([3]; COMPOUND 25 10.00 nM alone) was 28.42%, the pEC50 [3, 4] was 8.24 and the pEC50 [3, 5] was 8.24. The inhibition at 0.00012 µM ([3]; Hepatitis B virus, Hepatocyte, read-out: AVERAGE % INHIBITION HBeAg, COMPOUND 25 0.12 nM alone) was 5.33%, the inhibition at 0.00333 µM ([3]; Hepatitis B virus, Hepatocyte, read-out: AVERAGE % INHIBITION HBeAg, COMPOUND 25 3.33 nM alone) was 8.74% and the inhibition at 0.01 µM ([3]; Hepatitis B virus, Hepatocyte, read-out: AVERAGE % INHIBITION HBeAg, COMPOUND 25 10.00 nM alone) was 33.2%. The inhibition at 0.12 µM ([3]; Hepatitis B virus, Hepatocyte, read-out: AVERAGE % INHIBITION HBeAg, COMPOUND 25 0.12 μM alone) was -11.2%, the inhibition at 0.37 µM ([3]; Hepatitis B virus, Hepatocyte, read-out: AVERAGE % INHIBITION HBeAg, COMPOUND 25 0.37 μM alone) was -13.8% and the inhibition at 3.33 µM ([3]; Hepatitis B virus, Hepatocyte, read-out: AVERAGE % INHIBITION HBeAg, COMPOUND 25 3.33 μM alone) was -7.31%. The inhibition at 10 µM ([3]; Hepatitis B virus, Hepatocyte, read-out: AVERAGE % INHIBITION HBeAg, COMPOUND 25 10.00 μM alone) was 22% and the pEC50 ([3]; Hepatitis B virus, Hepatocyte, read-out: Inhibitor A EC50 HBeAg) was 8.24.

Work on `CNC(=O)N[C@H]1CCOc2c(C(=O)Nc3ccc(F)c(F)c3)ccc(F)c21` [Compound 23] yielded an inhibition at 0.02469 µM ([1]; Hepatitis B virus, Hepatocyte, read-out: AVERAGE % […] DNA, compound 23 24.69 nM alone (TDF study)) of -15.3%, an inhibition at 0.024691 µM ([1]; Hepatitis B virus, Hepatocyte, read-out: AVERAGE % […] DNA, compound 23 24.691 nM alone (TAF study)) of -4.57% and an inhibition at 0.07407 µM ([1]; Hepatitis B virus, Hepatocyte, read-out: AVERAGE % […] DNA, compound 23 74.07 nM alone (TDF study)) of -36.6%. For the same molecule, the inhibition at 0.074074 µM ([1]; Hepatitis B virus, Hepatocyte, read-out: AVERAGE % […] DNA, compound 23 74.074 nM alone (TAF study)) was -2.49%, the inhibition at 0.22222 µM ([1]; Hepatitis B virus, Hepatocyte, read-out: AVERAGE % […] DNA, compound 23 222.22 nM alone (TAF study)) was 11.1% and the inhibition at 0.22222 µM ([1]; Hepatitis B virus, Hepatocyte, read-out: AVERAGE % […] DNA, compound 23 222.22 nM alone (TDF study)) was 0.78%. For the same molecule, the inhibition at 0.66667 µM ([1]; Hepatitis B virus, Hepatocyte, read-out: AVERAGE % […] DNA, compound 23 666.67 nM alone (TAF study)) was 30.5%, the inhibition at 0.66667 µM ([1]; Hepatitis B virus, Hepatocyte, read-out: AVERAGE % […] DNA, compound 23 666.67 nM alone (TDF study)) was 30.4% and the inhibition at 2 µM ([1]; Hepatitis B virus, Hepatocyte, read-out: AVERAGE % […] DNA, compound 23 2000 nM alone (TAF study)) was 58.1%. The inhibition at 2 µM ([1]; Hepatitis B virus, Hepatocyte, read-out: AVERAGE % […] DNA, compound 23 2000.00 nM alone (TDF study)) was 70%, the pEC50 ([1]; Hepatitis B virus, Hepatocyte, HBV DNA, determined in an earlier separate experiment, read-out: Inhibitor B EC50) was 6.64 and the inhibition at 0.02469 µM ([2]; Hepatitis B virus, Hepatocyte, read-out: AVERAGE % INHIBITION HBsAg, compound 23 24.69 nM alone (TDF study)) was -13.9%. It also gave an inhibition at 0.024691 µM ([2]; Hepatitis B virus, Hepatocyte, read-out: AVERAGE % INHIBITION HBsAg, compound 23 24.691 nM alone (TAF study)) of 0.77%, an inhibition at 0.07407 µM ([2]; Hepatitis B virus, Hepatocyte, read-out: AVERAGE % INHIBITION HBsAg, compound 23 74.07 nM alone (TDF study)) of -10.9% and an inhibition at 0.074074 µM ([2]; Hepatitis B virus, Hepatocyte, read-out: AVERAGE % INHIBITION HBsAg, compound 23 74.074 nM alone (TAF study)) of -5.27%. For the same molecule, the inhibition at 0.22222 µM ([2]; Hepatitis B virus, Hepatocyte, read-out: AVERAGE % INHIBITION HBsAg, compound 23 222.22 nM alone (TAF study)) was 4.83%, the inhibition at 0.22222 µM ([2]; Hepatitis B virus, Hepatocyte, read-out: AVERAGE % INHIBITION HBsAg, compound 23 222.22 nM alone (TDF study)) was -11.6% and the inhibition at 0.66667 µM ([2]; Hepatitis B virus, Hepatocyte, read-out: AVERAGE % INHIBITION HBsAg, compound 23 666.67 nM alone (TAF study)) was 1.95%. The inhibition at 0.66667 µM ([2]; Hepatitis B virus, Hepatocyte, read-out: AVERAGE % INHIBITION HBsAg, compound 23 666.67 nM alone (TDF study)) was -4.45%, the inhibition at 2 µM ([2]; Hepatitis B virus, Hepatocyte, read-out: AVERAGE % INHIBITION HBsAg, compound 23 2000.00 nM alone (TDF study)) was 0.48% and the pEC50 ([2]; Hepatitis B virus, Hepatocyte, read-out: Inhibitor B EC50) was 5.36. The inhibition at 0.02469 µM ([3]; Hepatitis B virus, Hepatocyte, read-out: AVERAGE % INHIBITION HBeAg, compound 23 24.69 nM alone) was -8.82%, the inhibition at 0.07407 µM ([3]; Hepatitis B virus, Hepatocyte, read-out: AVERAGE % INHIBITION HBeAg, compound 23 74.07 nM alone) was -6.36% and the inhibition at 0.22222 µM ([3]; Hepatitis B virus, Hepatocyte, read-out: AVERAGE % INHIBITION HBeAg, compound 23 222.22 nM alone) was -12.7%. For the same molecule, the inhibition at 0.66667 µM ([3]; Hepatitis B virus, Hepatocyte, read-out: AVERAGE % INHIBITION HBeAg, compound 23 666.67 nM alone) was -7.94%, the inhibition at 2 µM ([3]; Hepatitis B virus, Hepatocyte, read-out: AVERAGE % INHIBITION HBeAg, compound 23 2000.00 nM alone) was -1.09% and the pEC50 ([3]; Hepatitis B virus, Hepatocyte, HBeAg, PHH, determined in an earlier separate experiment, read-out: Inhibitor B EC50) was 5.34.
